# Source: paper PMC6632053, “Incorporation of Putative Helix-Breaking Amino Acids in the Design of Novel Stapled Peptides: Exploring Biophysical and Cellular Permeability Properties” (Molecules, 2019)
# Where two headings read alike, the source gives them in different places. Bridge positions count the residues as written; N and C are the ends. Square brackets hold non-standard residues; d marks the D form. Peptide text beside a SMILES is read from it. Lys(N3) = [N-]=[N+]=NCCCC[C@H](N)C(=O)O; R8 = C=CCCCCCC[C@@](C)(N)C(=O)O; Cba = N[C@@H](CC1CCC1)C(=O)O; S5 = C=CCCC[C@](C)(N)C(=O)O; βAla = NCCC(=O)O
# Experiments:
# human Mdm2 1–125 = molecular target: T1, human Mdm2 1–125 (Homo sapiens, UniProt Q00987); assay: Mdm2 binding assay (competitive fluorescence anisotropy/polarization); details: competitive fluorescence polarization, read-out: Mdm2 (nM), Mdm2 binding (Kd)
# T1 construct: GST (N); His6 (internal); TEV cleavage site ENLYFQG (internal); made in house; host or cells: Escherichia coli BL21 (DE3) Rosetta T1R
# T1 sequence (Q00987 with tags, fused parts or gaps): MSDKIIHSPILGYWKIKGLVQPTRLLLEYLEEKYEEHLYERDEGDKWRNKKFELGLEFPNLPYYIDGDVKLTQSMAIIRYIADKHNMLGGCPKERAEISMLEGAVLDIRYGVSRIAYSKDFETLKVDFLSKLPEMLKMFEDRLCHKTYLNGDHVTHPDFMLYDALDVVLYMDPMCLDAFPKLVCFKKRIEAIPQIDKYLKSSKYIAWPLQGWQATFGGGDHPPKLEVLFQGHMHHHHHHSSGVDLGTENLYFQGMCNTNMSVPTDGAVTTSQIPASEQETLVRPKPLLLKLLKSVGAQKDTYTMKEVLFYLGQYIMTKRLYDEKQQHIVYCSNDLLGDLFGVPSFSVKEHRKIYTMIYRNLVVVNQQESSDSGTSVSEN
# [1] = test system: p53 responsive β-lactamase reporter in HCT116 cells; assay: p53 beta-lactamase reporter gene cellular functional assay; type: cell-based
# Outline: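 HCT116 cells stably carrying a p53-responsive β-lactamase reporter seeded 8000/well overnight, then switched to Opti-MEM with 0% or 10% FBS for compound treatment at 0.5% DMSO final. β-Lactamase activity measured with ToxBLAzer Dual Screen on a multiplate reader.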
# [2] = Circular dichroism (CD) α-helicity; type: physicochemical; details: for Helicity (%): CD of free peptide, 25 °C, 1 mM Hepes pH 7.4, 5% methanol
# Outline: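 Peptide dried from methanol, reconstituted to 1 mM in 1 mM Hepes pH 7.4 with 5% methanol; concentration by A280. CD spectra 300–190 nm, 0.2 cm path, 25 °C, duplicates; converted to mean residue ellipticity and deconvoluted for secondary structure.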
# [3] = Whole cell homogenate stability; type: in vitro ADME; details: 1 μM peptide, 37 °C, up to 22 h
# Description: Peptides at a concentration of 1 μM were incubated at 37 °C with HCT116 whole cell homogenates prepared from 1 million lysed cells/mL. The reaction was stopped at 0, 1, 2, 4, and 22 h with an organic solvent followed by centrifugation. The resulting supernatant was injected into LC/MS for detection of the tested peptide. The remaining percentage of each compound was normalized to the 0 h amount and reported. As a positive control, we used the ONEG peptide with the sequence […] [28].
# [4] = Lactate dehydrogenase (LDH) release assay; type: cell-based; details: membrane integrity, HCT116
# Description: HCT116 cells were seeded into a 384-well plate at a density of 8000 cells per well. Cells were maintained in McCoy’s 5A Medium with 10% fetal bovine serum (FBS), Blasticidin, and Penicillin/Streptomycin. The cells were incubated overnight, followed by the removal of cell media and the addition of Opti-MEM Medium without FBS. Cells were then treated with peptides for 4 or 16 h in Opti-MEM, either in 10% FBS or in serum free conditions. The final concentration of DMSO was 0.5%. Lactate dehydrogenase release was detected using the CytoTox-ONE Homogenous Membrane Integrity Assay Kit (Promega), as per the manufacturer’s instructions. Measurements were carried out using the Tecan plate reader. Maximum LDH release was defined as the amount of LDH released as induced by the lytic peptide (iDNA79) and used to normalize the results.
# [5] = molecular target: T2, recombinant human Mdm2 protein (amino acids 1–125) (Homo sapiens, UniProt Q00987); assay: Isothermal titration calorimetry (ITC); type: binding; details: Figure 2A middle panel
# T2 construct: purified recombinant human Mdm2 protein (amino acids 1–125); made in house
# T2 sequence (Q00987 1-125): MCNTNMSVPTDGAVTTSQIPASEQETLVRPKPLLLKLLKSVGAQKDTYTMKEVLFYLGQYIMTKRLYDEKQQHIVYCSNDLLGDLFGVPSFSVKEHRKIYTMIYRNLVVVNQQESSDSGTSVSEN
# Description: Overnight dialysis of protein and peptides were carried out in buffer containing 1× phosphate-buffered saline (PBS) pH 7.2, 3% DMSO, and 0.001% Tween-20. […] Reverse ITC (200 µM of Mdm2 protein titrated into 20 µM of peptide) was carried out for peptides that are insoluble at high concentrations. All experiments were performed in duplicates using the MicroCal PEAQ-ITC Automated system. Data analysis was carried out using the MicroCal PEAQ-ITC Analysis Software.
# biotinylated Mdm2 = molecular target: T3, biotinylated Mdm2 (Homo sapiens, UniProt Q00987); assay: Surface plasmon resonance (SPR); type: binding; details: Figure 2A right panel, 25 °C
# T3 construct: made in house
# T3 sequence (Q00987 whole entry): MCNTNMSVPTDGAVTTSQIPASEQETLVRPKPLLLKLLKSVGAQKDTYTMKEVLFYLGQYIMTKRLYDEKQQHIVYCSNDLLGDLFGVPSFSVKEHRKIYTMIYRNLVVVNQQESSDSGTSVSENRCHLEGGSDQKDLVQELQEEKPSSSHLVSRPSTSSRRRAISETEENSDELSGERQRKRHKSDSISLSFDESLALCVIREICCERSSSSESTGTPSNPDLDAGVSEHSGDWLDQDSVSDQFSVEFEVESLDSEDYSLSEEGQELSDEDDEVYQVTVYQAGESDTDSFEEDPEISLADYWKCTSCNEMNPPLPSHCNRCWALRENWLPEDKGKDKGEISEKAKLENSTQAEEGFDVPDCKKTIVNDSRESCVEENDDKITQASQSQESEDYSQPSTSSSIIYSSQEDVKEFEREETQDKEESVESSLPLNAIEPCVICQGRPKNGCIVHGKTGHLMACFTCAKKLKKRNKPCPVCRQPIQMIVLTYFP
# Description: SPR experiments were performed with Biacore T100 (GE Healthcare) at 25 °C. […] The SPR buffer consisted of 50 mM Tris pH 7.4, 150 mM NaCl, 1 mM DTT, 0.05% Tween 20, and 3% DMSO. The CM5 chip was first conditioned with 100 mM HCl, followed by 0.1% SDS, 50 mM NaOH, and then water, all performed twice with 6 sec injection at a flow rate of 100 µL/min. With the flow rate set to 10 µL/min, streptavidin (S4762, Sigma-Aldrich) was immobilized on the conditioned chip through amine coupling, as described in the Biacore manual. Excess protein was removed by 30 s injection of the wash solution (50 mM NaOH + 1 M NaCl) at least eight times. The immobilized level was ~3000 RU. The biotinylated Mdm2 was captured by streptavidin, up to a level of ~400 RU. A flow cell consisting of only streptavidin was used as the reference surface. Using a flow rate of 30 µL/min, peptides dissolved in the SPR buffer were injected for 180 s. The dissociation was monitored for 300 s. […] After the run, responses from the target protein surface were transformed by: (i) correcting with the DMSO calibration curve, (ii) subtracting the responses obtained from the reference surface, and (iii) subtracting the responses of the buffer injections from those of peptide injections. The last step is known as double referencing, which corrects the systematic artefacts. […]
# [6] = Table 1, p53 reporter assay, HCT116, read-out: Cellular (µM), cellular activity (EC50)
# [7] = Table 2, p53 reporter assay, HCT116, read-out: Cellular (µM), cellular activity (EC50)
Kd (human Mdm2 1–125; Table 1) [nM],"EC50 [1, 6] [µM]",Helicity (%) ([2]; Table 1),Kd (human Mdm2 1–125; Table 2) [nM],"EC50 [1, 7] [µM]",α-helicity by CD [2] [%],Helicity (%) ([2]; Table 2),Structure (SMILES),stability in whole cell homogenate [3],other results
135,> 50,21.4,,,,,CC(=O)N[C@@H](CC(C)C)C(=O)N[C@H](C(=O)N[C@@H](Cc1ccccc1)C(=O)NC(C)(C)C(=O)N[C@H](CCC(=O)O)C(=O)N[C@@H](Cc1ccc(O)cc1)C(=O)N[C@@H](Cc1c[nH]c2ccccc12)C(=O)N[C@@H](CCC(N)=O)C(=O)N[C@@H](CC(C)C)C(=O)N[C@@H](CC1CCC1)C(=O)NC(C)(C)C(=O)N[C@@H](CO)C(=O)N[C@@H](C)C(=O)N[C@@H](C)C(N)=O)[C@@H](C)O [Linear E5(D-Glu)],decreased stability,
,,,211,> 50,< 30,20.2,CC(=O)N[C@@H](CCCCN=[N+]=[N-])C(=O)NCCC(=O)N[C@@H](CC(C)C)C(=O)N[C@H](C(=O)N[C@@H](Cc1ccccc1)C(=O)N[C@]1(C)CCCCCCC=CCCC[C@@](C)(C(=O)N[C@@H](CO)C(=O)N[C@@H](C)C(=O)N[C@@H](C)C(N)=O)NC(=O)[C@H](CC2CCC2)NC(=O)[C@H](CCC(N)=O)N(C)C(=O)[C@H](C)NC(=O)[C@H](Cc2c[nH]c3ccccc23)NC(=O)[C@H](Cc2ccc(O)cc2)NC(=O)[C@H](CCC(=O)O)NC1=O)[C@@H](C)O [Q9(N-methyl L-Gln)],,
,,,49.8,1.7,20.4,20.4,"CC(=O)N[C@@H](CCCCN=[N+]=[N-])C(=O)NCCC(=O)NCC(=O)N[C@H](C(=O)N[C@@H](Cc1ccccc1)C(=O)N[C@]1(C)CCCCCCC=CCCC[C@@](C)(C(=O)N[C@@H](CO)C(=O)N[C@@H](C)C(=O)N[C@@H](C)C(N)=O)NC(=O)[C@H](CC2CCC2)NC(=O)[C@H](CCC(N)=O)NC(=O)CNC(=O)[C@H](Cc2c[nH]c3ccccc23)NC(=O)[C@H](Cc2ccc(O)cc2)NC(=O)CNC1=O)[C@@H](C)O [L1G, E5G, A8G] (Ac-[Lys(N3)][βAla]GTF[R8]GYWGQ[Cba][S5]SAA-NH2; staple 6-13)",,
38.9,0.55,50.3,,,,,CC(=O)N[C@@H](CC(C)C)C(=O)N[C@H](C(=O)N[C@@H](Cc1ccccc1)C(=O)N[C@]1(C)CCCCCCC=CCCC[C@@](C)(C(=O)N[C@@H](CO)C(=O)N[C@@H](C)C(=O)N[C@@H](C)C(N)=O)NC(=O)[C@H](CC2CCC2)NC(=O)[C@H](CC(C)C)NC(=O)[C@H](CCC(N)=O)NC(=O)[C@H](Cc2c[nH]c3ccccc23)NC(=O)[C@H](C)NC(=O)[C@H](CCC(=O)O)NC1=O)[C@@H](C)O [Peptide Y6A] (Ac-LTF[R8]EAWQL[Cba][S5]SAA-NH2; staple 4-11),,
3600,37,48.4,,,,,CC(=O)N[C@@H](CC(C)C)C(=O)N[C@H](C(=O)N[C@@H](C)C(=O)N[C@]1(C)CCCCCCC=CCCC[C@@](C)(C(=O)N[C@@H](CO)C(=O)N[C@@H](C)C(=O)N[C@@H](C)C(N)=O)NC(=O)[C@H](CC2CCC2)NC(=O)[C@H](CC(C)C)NC(=O)[C@H](CCC(N)=O)NC(=O)[C@H](Cc2c[nH]c3ccccc23)NC(=O)[C@H](Cc2ccc(O)cc2)NC(=O)[C@H](CCC(=O)O)NC1=O)[C@@H](C)O [Peptide F3A] (Ac-LTA[R8]EYWQL[Cba][S5]SAA-NH2; staple 4-11),,

# Continued, compound first:
Structure (SMILES),Kd (human Mdm2 1–125; Table 1) [nM],"EC50 [1, 6] [µM]",Helicity (%) ([2]; Table 1),Kd (human Mdm2 1–125; Table 2) [nM],"EC50 [1, 7] [µM]",α-helicity by CD [2] [%],Helicity (%) ([2]; Table 2),stability in whole cell homogenate [3],other results
"CC(=O)N[C@@H](CC(C)C)C(=O)N[C@H](C(=O)N[C@@H](Cc1ccccc1)C(=O)NC(C)(C)C(=O)N[C@@H](CCC(=O)O)C(=O)N[C@@H](Cc1ccc(O)cc1)C(=O)N[C@@H](Cc1c[nH]c2ccccc12)C(=O)N[C@@H](CCC(N)=O)C(=O)N[C@@H](CC(C)C)C(=O)N[C@@H](CC1CCC1)C(=O)NC(C)(C)C(=O)N[C@@H](CO)C(=O)N[C@@H](C)C(=O)N[C@@H](C)C(N)=O)[C@@H](C)O [Linear Parent (MP-189), Ac–Leu–Thr–Phe–Aib–Glu–Tyr–Trp–Gln–Leu–Cba–Aib–Ser–Ala–Ala–NH2]",43.1,33.5,35.3,,,,,moderate stabilities,
CC(=O)N[C@@H](CC(C)C)C(=O)N[C@H](C(=O)N[C@@H](Cc1ccccc1)C(=O)N[C@]1(C)CCCCCCC=CCCC[C@@](C)(C(=O)N[C@@H](CO)C(=O)N[C@@H](C)C(=O)N[C@@H](C)C(N)=O)NC(=O)[C@H](CC2CCC2)NC(=O)[C@H](CC(C)C)NC(=O)[C@H](CCC(N)=O)NC(=O)[C@H](Cc2c[nH]c3ccccc23)NC(=O)[C@@H](Cc2ccc(O)cc2)NC(=O)[C@H](CCC(=O)O)NC1=O)[C@@H](C)O [Y6 (D-Tyr)],286,3.2,43.2,,,,,,
CC(=O)N[C@@H](CC(C)C)C(=O)N[C@H](C(=O)N[C@@H](Cc1ccccc1)C(=O)N[C@]1(C)CCCCCCC=CCCC[C@@](C)(C(=O)N[C@@H](CO)C(=O)N[C@@H](C)C(=O)N[C@@H](C)C(N)=O)NC(=O)[C@H](CC2CCC2)NC(=O)[C@H](CC(C)C)NC(=O)[C@H](CCC(N)=O)NC(=O)[C@H](Cc2c[nH]c3ccccc23)NC(=O)[C@H](Cc2ccc(O)cc2)NC(=O)[C@H](CCC(=O)O)NC1=O)[C@@H](C)O [MP-292],18.6,0.54,32.8,,,,,minimal degradation,"EC50 ([1]; 0% serum, read-out: p53 reporter assay EC50): 0.5 µM; EC50 ([1]; 2% serum, read-out: p53 reporter assay EC50): 0.7 µM; EC50 ([1]; 10% serum, read-out: p53 reporter assay EC50): 4.2 µM; EC50 [4]: > 50000 nM; Kd [5]: < 20 nM; Kd (biotinylated Mdm2): 1.4 nM"
CC(=O)N[C@H](CC(C)C)C(=O)N[C@H](C(=O)N[C@@H](Cc1ccccc1)C(=O)N[C@]1(C)CCCCCCC=CCCC[C@@](C)(C(=O)N[C@@H](CO)C(=O)N[C@@H](C)C(=O)N[C@@H](C)C(N)=O)NC(=O)[C@H](CC2CCC2)NC(=O)[C@H](CC(C)C)NC(=O)[C@H](CCC(N)=O)NC(=O)[C@H](Cc2c[nH]c3ccccc23)NC(=O)[C@H](Cc2ccc(O)cc2)NC(=O)[C@H](CCC(=O)O)NC1=O)[C@@H](C)O [L1(D-Leu)],31,0.6,44.1,,,,,,
CC(=O)N[C@@H](CCCCN=[N+]=[N-])C(=O)NCCC(=O)N[C@@H](CC(C)C)C(=O)N[C@H](C(=O)N[C@@H](Cc1ccccc1)C(=O)N[C@]1(C)CCCCCCC=CCCC[C@@](C)(C(=O)N[C@@H](CO)C(=O)N[C@@H](C)C(=O)N[C@@H](C)C(N)=O)NC(=O)[C@H](CC2CCC2)NC(=O)[C@H](CCC(N)=O)NC(=O)[C@H](C)NC(=O)[C@H](Cc2c[nH]c3ccccc23)NC(=O)[C@H](Cc2ccc(O)cc2)NC(=O)CNC1=O)[C@@H](C)O [Peptide E5G],,,,61.8,0.26,28.6,28.6,,
